≈ marks a conversion by molar mass, not a printed value.
Legend:
Hygroscopicity profile = type: physicochemical
From the text: FIG. 2 provides a chart of the hygroscopicity profile of 4-[2-dimethylamino-1-(4-phenyl)-ethyl-tetrahydro-pyran-4-ol.

[1] = Solution stability in aqueous solutions; type: physicochemical; details: room temperature, all aqueous solutions (pH 1.25-8.8)
pH-solubility profile = type: physicochemical; details: aqueous solution, thermodynamic from solid
From the text: FIG. 4 provides a chart of the pH - solubility profile of 4-[2-dimethylamino-1-(4-phenyl)-ethyl-tetrahydro-pyran-4-ol.

[2] = target: human serotonin transporter (Homo sapiens, UniProt P31645); assay: human serotonin transporter assay (in-house); type: binding; details: initial experiments, in-house assays
Sequence of human serotonin transporter (P31645 whole entry): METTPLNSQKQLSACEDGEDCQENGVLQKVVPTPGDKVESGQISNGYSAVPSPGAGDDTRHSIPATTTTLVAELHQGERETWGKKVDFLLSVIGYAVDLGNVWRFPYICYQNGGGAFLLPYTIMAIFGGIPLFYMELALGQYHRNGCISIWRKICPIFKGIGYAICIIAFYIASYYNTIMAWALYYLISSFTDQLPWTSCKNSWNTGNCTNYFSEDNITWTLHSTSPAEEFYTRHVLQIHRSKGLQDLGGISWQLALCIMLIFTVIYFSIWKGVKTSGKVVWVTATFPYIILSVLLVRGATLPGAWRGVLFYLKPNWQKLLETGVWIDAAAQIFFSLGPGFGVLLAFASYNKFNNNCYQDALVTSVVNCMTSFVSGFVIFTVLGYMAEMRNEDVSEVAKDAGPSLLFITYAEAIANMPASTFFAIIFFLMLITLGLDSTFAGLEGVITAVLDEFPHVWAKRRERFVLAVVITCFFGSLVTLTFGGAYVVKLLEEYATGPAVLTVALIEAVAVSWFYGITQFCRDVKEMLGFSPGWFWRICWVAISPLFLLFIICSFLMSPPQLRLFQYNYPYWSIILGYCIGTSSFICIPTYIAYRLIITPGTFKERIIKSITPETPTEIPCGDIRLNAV
From the text: In initial experiments using in-house assays, 4-[2-dimethylamino-1-(4-hydroxy-phenyl)-ethyl]-tetrahydro-pyran-4-ol has been found active in a human serotonin transporter assay.

- Hygroscopicity (Hygroscopicity profile): Non-hygroscopic
- Hygroscopicity, weight gain (Hygroscopicity profile; @ 70% RH): 2%
- Hygroscopicity, weight gain (Hygroscopicity profile; @ 90% RH, weight gain was lost when returned to 10% RH or 0% RH): 6%
- Solution Stability (time stable) [1]: at least 24 hours
- solubility (pH-solubility profile; pH 4.4, aqueous buffer, Final pH 4.40): 3910 µg/mL (≈ 14.7 mM)
- solubility (pH-solubility profile; pH 7.1, aqueous buffer, Final pH 7.10): 3470 µg/mL (≈ 13.1 mM)
- solubility (pH-solubility profile; pH 8.8, aqueous buffer, Final pH 8.80): 2960 µg/mL (≈ 11.2 mM)
- solubility (pH-solubility profile; simulated gastric fluid, Final pH 1.25): 13600 µg/mL (≈ 51.1 mM)
- activity in human serotonin transporter assay [2]: active
SMILES: CN(C)CC(c1ccc(O)cc1)C1(O)CCOCC1 (stereo not drawn) [4-[2-Dimethylamino-1-(4-Hydroxy-Phenyl)-ethyl]-Tetrahydro-Pyran-4-ol]

From US7595340B2, “Serotonin and norepinephrine reuptake inhibitor and uses thereof” (Wyeth, priority 2005, dated 2009)
